In patent publication US9707229B2, “Compositions and methods for treating an infection” (CMPD LICENSING, LLC, priority 2015, dated 2017):

Tests used:
Assay type in all cases: cell-based
[1] = tested on: Trichophyton mentagrophytes; test: Expected efficacy of antifungal agents
[2] = tested on: Paracoccidioides brasiliensis; test: Expected efficacy of antifungal agents
Aspergillus fumigatus = test: Expected efficacy of antifungal agents
Aspergillus flavus = test: Expected efficacy of antifungal agents
Candida species = test: Expected efficacy of antifungal agents
Blastomyces dermatitidis = test: Expected efficacy of antifungal agents
Cryptococcus neoformans = test: Expected efficacy of antifungal agents
Trichophyton rubrum = test: Expected efficacy of antifungal agents
Coccidioides immitis = details: expected efficacy
Histoplasma duboisii = details: expected efficacy
Sporothrix schenckii = test: Expected efficacy of antifungal agents
Aspergillus terreus = test: Expected efficacy of antifungal agents
Scedosporium apiospermum = test: Expected efficacy of antifungal agents
Aspergillus niger = test: Expected efficacy of antifungal agents
Fusarium species = test: Expected efficacy of antifungal agents
Leishmania infantum = test: Expected efficacy of antifungal agents
Histoplasma capsulatum = details: expected efficacy
Leishmania donovani = test: Expected efficacy of antifungal agents

Itraconazole
yes: efficacy against Trichophyton mentagrophytes [1] | efficacy against Paracoccidioides brasiliensis [2] | efficacy against Aspergillus fumigatus (Aspergillus fumigatus) | efficacy against Aspergillus flavus (Aspergillus flavus) | efficacy against Candida species (Candida species) | efficacy against Blastomyces dermatitidis (Blastomyces dermatitidis) | efficacy against Cryptococcus neoformans (Cryptococcus neoformans) | efficacy against Trichophyton rubrum (Trichophyton rubrum) | efficacy against Coccidioides immitis (Coccidioides immitis) | efficacy against Histoplasma duboisii (Histoplasma duboisii) | efficacy against Sporothrix schenckii (Sporothrix schenckii)

C[C@@H](c1ncncc1F)[C@](O)(Cn1cncn1)c1ccc(F)cc1F [Voriconazole]
yes: efficacy against Aspergillus terreus (Aspergillus terreus) | efficacy against Scedosporium apiospermum (Scedosporium apiospermum) | efficacy against Aspergillus niger (Aspergillus niger) | efficacy against Aspergillus fumigatus (Aspergillus fumigatus) | efficacy against Aspergillus flavus (Aspergillus flavus) | efficacy against Candida species (Candida species) | efficacy against Fusarium species (Fusarium species)

C[C@@H]1[C@H](O)[C@@H](C)/C=C/C=C/C=C/C=C/C=C/C=C/C=C/[C@H](O[C@@H]2O[C@H](C)[C@@H](O)[C@H](N)[C@@H]2O)C[C@@H]2O[C@](O)(C[C@@H](O)C[C@@H](O)[C@H](O)CC[C@@H](O)C[C@@H](O)CC(=O)O[C@H]1C)C[C@H](O)[C@H]2C(=O)O [Amphotericin]
yes: efficacy against Aspergillus terreus (Aspergillus terreus) | efficacy against Paracoccidioides brasiliensis [2] | efficacy against Aspergillus niger (Aspergillus niger) | efficacy against Aspergillus fumigatus (Aspergillus fumigatus) | efficacy against Aspergillus flavus (Aspergillus flavus) | efficacy against Candida species (Candida species) | efficacy against Blastomyces dermatitidis (Blastomyces dermatitidis) | efficacy against Leishmania infantum (Leishmania infantum) | efficacy against Cryptococcus neoformans (Cryptococcus neoformans) | efficacy against Coccidioides immitis (Coccidioides immitis) | efficacy against Histoplasma capsulatum (Histoplasma capsulatum) | efficacy against Leishmania donovani (Leishmania donovani)
